The record followed here is paper PMC5998028, “Synthesis, antimicrobial activity and conformational analysis of the class IIa bacteriocin pediocin PA-1 and analogs thereof” (Scientific Reports, 2018).

For assay [1], the system named is Bacillus coagulans ATCC 7050. The assay can be described thus: MIC micro-dilution assay. In kind it is cell-based. Conditions: MH, 37 °C, 18 h. In general terms: Broth dilution looks for growth in wells or tubes with falling amounts of substance.
The subject of assay [2] is Bacillus subtilis ATCC 6633. As to the kind of experiment: MIC micro-dilution assay. It counts as cell-based. Conditions: MH, 37 °C, 18 h.
For assay [3], the system named is Bacillus cereus LSPQ 2872. As to the kind of experiment: MIC micro-dilution assay. It counts as cell-based. Conditions: MH, 37 °C, 18 h.
In assay [4] the test system is Staphylococcus aureus ATCC 29213. The assay can be described thus: MIC micro-dilution assay. In kind it is cell-based. As to conditions: MH, 37 °C, 18 h.
Assay [5] concerns Enteroccocus faecalis ATCC 27275. The assay can be described thus: MIC micro-dilution assay. As to conditions: BHI, 37 °C, 18 h. In kind it is cell-based, Enterococcus faecalis.
The subject of assay [6] is Bifidobacterium animalis ATCC 27536. As to the kind of experiment: MIC micro-dilution assay. It counts as cell-based. Conditions: RCM, 37 °C, 18 h.
For assay [7], the system named is Lactobacillus acidophilus ATCC 4356. The assay can be described thus: MIC micro-dilution assay. It counts as cell-based. As to conditions: MRS, 37 °C, 18 h.
The subject of assay [8] is C. perfringens. In kind it is cell-based, Clostridium perfringens. As to conditions: radial diffusion assays, RCM.
The test system of assay [9] is Staphylococcus aureus ATCC 6538. As to the kind of experiment: MIC micro-dilution assay. In kind it is cell-based. Conditions: MH, 37 °C, 18 h.
The subject of assay [10] is Escherichia coli ATCC 25922. As to the kind of experiment: MIC micro-dilution assay. In kind it is cell-based. As to conditions: MH, 37 °C, 18 h.
The subject of assay [11] is Lactococcus lactis ATCC 19257. The assay can be described thus: MIC micro-dilution assay. In kind it is cell-based. As to conditions: MRS, 37 °C, 18 h.
For assay [12], the system named is Clostridium tyrobutiricum ATCC 25755. As to the kind of experiment: MIC micro-dilution assay. In kind it is cell-based, Clostridium tyrobutyricum. Conditions: RCM, 37 °C, 18 h.
Assay [13] has as its system Staphylococcus aureus ATCC 25923. As to the kind of experiment: MIC micro-dilution assay. In kind it is cell-based. As to conditions: MH, 37 °C, 18 h.
The test system of assay [14] is Streptococcus thermophilus RBL 18 FYE 41. As to the kind of experiment: MIC micro-dilution assay. In kind it is cell-based. As to conditions: MH, 37 °C, 18 h.
In assay [15] the test system is Enterococcus hirae ATCC 10541. As to the kind of experiment: MIC micro-dilution assay. It counts as cell-based. Conditions: BHI, 37 °C, 18 h.
The subject of assay [16] is L. monocytogenes ATCC 19111. As to conditions: L. monocytogenes ATCC 19111, soft agar TSBYE; 75 µL of 1 mg/mL peptide (or UL5 culture supernatant) per well; 37 °C, 18 h.
For assay [17], the system named is L. monocytogenes ATCC 19111. Conditions: micro-dilution, twofold serial dilutions, 37 °C, 18 h, absorbance 595 nm, means of two independent experiments in duplicate.
The subject of assay [18] is L. monocytogenes LSD530. As to conditions: micro-dilution, twofold serial dilutions, 37 °C, 18 h, absorbance 595 nm, means of two independent experiments in duplicate.
Assay [19] deals with L. ivanovii HPB28, L. monocytogenes LSD530, L. monocytogenes ATCC 19111. As to conditions: L. ivanovii HPB28, L. monocytogenes LSD530 and ATCC 19111; micro-dilution, 37 °C, 18 h.
Assay [20] deals with P. acidilactici UL5. The assay can be described thus: MIC micro-dilution assay. It counts as cell-based, Pediococcus acidilactici. Conditions: P. acidilactici UL5 (pediocin producer, immune), 37 °C, 18 h, absorbance 595 nm, means of two independent experiments in duplicate.
Assay [21] deals with L. ivanovii HPB28. Conditions: micro-dilution, twofold serial dilutions, 37 °C, 18 h, absorbance 595 nm, means of two independent experiments in duplicate.
Assay [22] has as its system M. luteus ATCC 10240. The assay can be described thus: Antimicrobial assay. In kind it is cell-based, Micrococcus luteus. As to conditions: at up to 100 µM.

For the compound `CC[C@H](C)[C@H](NC(=O)[C@H](CS)NC(=O)[C@@H](NC(=O)[C@@H](NC(=O)[C@H](C)NC(=O)[C@H](CCCCN)NC(=O)CNC(=O)[C@H](Cc1c[nH]c2ccccc12)NC(=O)[C@H](CC(=O)O)NC(=O)[C@@H](NC(=O)[C@H](CO)NC(=O)[C@H](CS)NC(=O)[C@H](CO)NC(=O)[C@H](Cc1c[nH]cn1)NC(=O)[C@H](CCCCN)NC(=O)CNC(=O)[C@H](CS)NC(=O)[C@@H](NC(=O)[C@@H](NC(=O)CNC(=O)[C@H](CC(N)=O)NC(=O)CNC(=O)[C@H](Cc1ccc(O)cc1)NC(=O)[C@H](Cc1ccc(O)cc1)NC(=O)[C@@H](N)CCCCN)C(C)C)[C@@H](C)O)C(C)C)[C@@H](C)O)[C@@H](C)O)C(=O)N[C@H](C(=O)N[C@@H](CC(N)=O)C(=O)N[C@@H](CC(N)=O)C(=O)NCC(=O)N[C@@H](C)C(=O)N[C@@H](CC(C)C)C(=O)N[C@@H](C)C(=O)N[C@@H](Cc1c[nH]c2ccccc12)C(=O)N[C@@H](C)C(=O)N[C@H](C(=O)NCC(=O)NCC(=O)N[C@@H](Cc1c[nH]cn1)C(=O)N[C@@H](CCC(N)=O)C(=O)NCC(=O)N[C@@H](CC(N)=O)C(=O)N[C@@H](Cc1c[nH]cn1)C(=O)N[C@@H](CCCCN)C(=O)N[C@@H](CS)C(=O)O)[C@@H](C)O)[C@@H](C)CC` [compound 4], the MIC entry in assay [1], in assay [2], in assay [3], in assay [4], in assay [5] and in assay [6] was “n.a. (no activity detected at concentrations up to 100 µM)” each time. Moreover, the MIC result in assay [7], in assay [9], in assay [10], in assay [11], in assay [12] and in assay [13] was “n.a. (no activity detected at concentrations up to 100 µM)” throughout. The MIC entry in assay [14] and in assay [15] was “n.a. (no activity detected at concentrations up to 100 µM)” each time. Besides, the “inhibition diameters against C. perfringens, range over two strains” value in [8] is given as 22–25 mm.

As to “KYYGNGVTAGKHSASVDWGKATTAIINNGAMAWATGGHQGNHKA [compound 6]”, the Inhibition zone diameter result in assay [16] is recorded as “no activity”. Moreover, the Minimal inhibitory concentration entry is recorded as “n.a. (no activity detected at concentrations up to 100 µM)” in [17], “n.a. (no activity detected at concentrations up to 100 µM)” in assay [18], “n.a. (no activity detected at concentrations up to 100 µM)” in [20] and “n.a.^a (no activity detected at concentrations up to 100 µM)” in assay [21]. In addition, the “MIC, range over the Listeria target strains” value in assay [19] was “completely inactive”.

Turning to `CC[C@H](C)[C@@H]1NC(=O)[C@@H](NC(=O)[C@@H](NC(=O)[C@@H](NC(=O)[C@H](C)NC(=O)[C@H](CCCCN)NC(=O)CNC(=O)[C@H](Cc2c[nH]c3ccccc23)NC(=O)[C@H](CC(=O)O)NC(=O)[C@@H](NC(=O)[C@H](CO)NC(=O)[C@@H]2CSSC[C@H](NC(=O)[C@@H](NC(=O)[C@@H](NC(=O)CNC(=O)[C@H](CC(N)=O)NC(=O)CNC(=O)[C@H](Cc3ccc(O)cc3)NC(=O)[C@H](Cc3ccc(O)cc3)NC(=O)[C@@H](N)CCCCN)C(C)C)[C@@H](C)O)C(=O)NCC(=O)N[C@@H](CCCCN)C(=O)N[C@@H](Cc3c[nH]cn3)C(=O)N[C@@H](CO)C(=O)N2)C(C)C)[C@@H](C)O)[C@@H](C)O)CSSC[C@@H](C(=O)O)NC(=O)[C@H](CCCCN)NC(=O)[C@H](Cc2c[nH]cn2)NC(=O)[C@H](CC(N)=O)NC(=O)CNC(=O)[C@H](CCC(N)=O)NC(=O)[C@H](Cc2c[nH]cn2)NC(=O)CNC(=O)CNC(=O)[C@H]([C@@H](C)O)NC(=O)[C@H](C)NC(=O)[C@H](Cc2c[nH]c3ccccc23)NC(=O)[C@H](C)NC(=O)[C@H](CCSC)NC(=O)[C@H](C)NC(=O)CNC(=O)[C@H](CC(N)=O)NC(=O)[C@H](CC(N)=O)NC(=O)[C@H]([C@@H](C)CC)NC1=O` [3c, pediocin PA-1], the “activity against M. luteus ATCC 10240” value in assay [22] is listed as “no activity”.
